By DC50 is commonly meant the concentration at which degradation of the target reaches its halfway point. Lower therefore signals degradation at low concentration. Usually Dmax stands for the greatest extent of degradation seen.

Test [1] concerns the target T1, AR (AR-full length) in LNCaP cells (Homo sapiens, UniProt P10275, T878A).
T1 construct: the prostate cancer cell line LNCaP (expressing AR-full length); endogenous in cells; host or cells: LNCaP
The test is described as follows: LNCaP Androgen Receptor Imaging Assay (immunofluorescence of endogenous nuclear AR). The class given is cell-based. Particulars: 24 h incubation; for LNCaP AR Degradation Dmax / Dmax: maximum degradation observed, normalized as % of positive control (prior art AR PROTAC at 3 μM); for DC50: concentration giving 50% of maximum degradation of AR per curve fit, single experiment or average of two or more; for Dmax: LNCaP. The protocol: This cell-based imaging assay uses immuno-fluorescence to measure endogenous nuclear AR staining in the prostate cancer cell line LNCaP (expressing AR-full length). The purpose of the assay is to identify compounds that regulate AR protein level according to the protocol laid out in the steps below.
(§1) All work was performed in a sterile tissue culture hood up to the point of cell fixation. LNCaP cells were cultured at 6-8×10^6 per T175 flask and split every 3-4 days. Medium: RPMI (R7638, VWR Sigma) containing 10% FCS and 1% glutamine. Cells were plated in black wall transparent bottom plates at a density of 12,000 cells (Cedex™ Cell counter, Beckmann & Coulter), 40 μL per well, using a Multidrop (ThermoFisher).
(§2) Cells were dosed with test compound diluted in DMSO using an Echo 555/655™ (Labcyte) and the final concentration of DMSO in the well was 0.3%. A neutral control (DMSO) and a positive AR degrader control at 3 μM (a prior art AR PROTAC) were included. The Echo uses acoustic technology to perform direct microplate-to-microplate transfers of DMSO compound solutions to assay plates. The system can be programmed to transfer volumes as low as 2.5 nL in multiple increments between microplates and in so doing generates a serial dilution of compound in the assay plate which is then back-filled to normalise the DMSO concentration across the dilution range. Compounds were dispensed as a 12 point dose response with indicated concentrations. The plates were incubated at 37° C./5% CO2 for 24 h and then fixed and stained as below. 40 μL of 8% paraformaldehyde solution (v/v) in phosphate buffered saline (PBS) was added on top of the media already in the well using a Multidrop to fix plates giving a final concentration of 4% PFA (v/v) for 20-30 minutes (keep in fume hood to minimise PFA exposure). After 20-30 mins, the plates were washed with 3×PBS using a BioTek washer in a fume hood. A shake out of remaining volume in the well was performed to ensure best removal of remaining PBS. At this plates could be stored in PBS after washing for at least 3 days at 4° C., if so, PBS was removed by the BioTek before continuing with the next step.
(§3) The cells were incubated with a Mouse monoclonal Anti-AR antibody AR441 (DAKO M3562) (1:1000), diluted in modified blocking buffer (PBS+1% BSA+0.1% TritonX); 15 μL/well for 2 h at RT. The plates were then washed with 3×PBS using a BioTek washer. A shake out of remaining volume in the well was performed to ensure best removal of remaining PBS. Cells were then incubated with Goat anti-mouse secondary antibody 488 (Invitrogen A11001) (1:500) and nuclear stain, DRAQ5 (Abcam Ab108410) (1:2000) diluted in modified blocking buffer for 45 mins at room temperature 15 μL/well. Plates are then washed with 3×PBS using a BioTek washer, without final aspiration, and sealed with black plate seals. Plates could be stored after staining for three days at 4° C. before read if required.
(§4) Plates are read using a Cellomics Cellinsight to measure the Androgen Receptor level in each well. The data is exported into Genedata to perform curve fitting analysis. All data are normalized as % of positive control and the BellFit method automatically determines the correct fit method based on the presence of hook effect, choosing the BellFit when there is a hook and HillFit when there is no hook. Down-regulation of AR is expressed as a DC50 value and determined by calculation of the concentration of compound that is required to give 50% of maximum degradation of AR as per the curve fit for that compound. The maximum degradation observed for each compound is expressed as Dmax. The AR degradation data for compounds is shown in the table below and may be a result from a single experiment or an average of two or more experiments.

Test [2] deals with T2, AR (L702H) in LNCaP cells (Homo sapiens, UniProt P10275, L702H/T878A).
T2 construct: engineered to introduce the mutation L702H into the AR gene using CRISPR/Cas9; endogenous in cells; host or cells: LNCaP cells edited by CRISPR/Cas9 at the AR gene
The test is described as follows: LNCaP Androgen Receptor L702H Imaging Assay (LNCaP cells engineered by CRISPR/Cas9). The class given is cell-based. Particulars: LNCaP cells with AR L702H mutation, 24 h incubation; for LNCaP AR (L702H) Degradation Dmax / Dmax: maximum degradation observed, normalized as % of positive control; for DC50: concentration giving 50% of maximum degradation of AR (L702H) per curve fit; for Dmax: LNCaP. The protocol:
as §1, §2, §3, §4
At this stage, anti-androgen therapy is largely ineffective due to AR amplification, overexpression or point mutation. One of the point mutations observed in patient populations is L702H in the AR Ligand Binding Domain. LNCAP cells have been engineered to introduce the mutation L702H into the AR gene using CRISPR/Cas9. The previously described imaging-based AR assay will monitor nuclear AR (L702H) levels in these cells to identify compounds that regulate AR (L702H). […]

T1 sequence (P10275 whole entry T878A): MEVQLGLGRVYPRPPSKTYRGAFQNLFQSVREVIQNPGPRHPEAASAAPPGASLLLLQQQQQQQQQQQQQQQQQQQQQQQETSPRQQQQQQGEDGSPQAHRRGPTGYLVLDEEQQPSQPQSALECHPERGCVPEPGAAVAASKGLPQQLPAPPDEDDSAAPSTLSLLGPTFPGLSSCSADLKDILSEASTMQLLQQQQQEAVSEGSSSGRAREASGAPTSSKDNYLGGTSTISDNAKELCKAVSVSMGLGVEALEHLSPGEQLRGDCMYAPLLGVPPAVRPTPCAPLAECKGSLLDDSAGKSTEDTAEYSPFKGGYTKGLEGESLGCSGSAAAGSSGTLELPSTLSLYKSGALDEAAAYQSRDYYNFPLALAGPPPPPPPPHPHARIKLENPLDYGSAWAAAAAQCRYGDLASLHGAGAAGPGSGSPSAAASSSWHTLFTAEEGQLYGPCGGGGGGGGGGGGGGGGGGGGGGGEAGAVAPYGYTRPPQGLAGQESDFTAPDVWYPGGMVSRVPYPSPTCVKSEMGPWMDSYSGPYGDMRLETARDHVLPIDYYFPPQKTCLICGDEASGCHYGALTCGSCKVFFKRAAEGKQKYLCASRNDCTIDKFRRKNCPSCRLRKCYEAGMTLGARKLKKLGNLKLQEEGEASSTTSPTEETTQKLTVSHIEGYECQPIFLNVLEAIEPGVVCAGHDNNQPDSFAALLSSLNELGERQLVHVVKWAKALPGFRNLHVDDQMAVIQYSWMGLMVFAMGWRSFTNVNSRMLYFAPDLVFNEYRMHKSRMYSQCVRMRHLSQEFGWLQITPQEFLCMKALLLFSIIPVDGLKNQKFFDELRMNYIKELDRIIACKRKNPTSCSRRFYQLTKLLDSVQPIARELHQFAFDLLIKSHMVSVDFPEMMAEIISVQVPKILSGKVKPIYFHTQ
T1 sequence (Q96SW2 whole entry partner): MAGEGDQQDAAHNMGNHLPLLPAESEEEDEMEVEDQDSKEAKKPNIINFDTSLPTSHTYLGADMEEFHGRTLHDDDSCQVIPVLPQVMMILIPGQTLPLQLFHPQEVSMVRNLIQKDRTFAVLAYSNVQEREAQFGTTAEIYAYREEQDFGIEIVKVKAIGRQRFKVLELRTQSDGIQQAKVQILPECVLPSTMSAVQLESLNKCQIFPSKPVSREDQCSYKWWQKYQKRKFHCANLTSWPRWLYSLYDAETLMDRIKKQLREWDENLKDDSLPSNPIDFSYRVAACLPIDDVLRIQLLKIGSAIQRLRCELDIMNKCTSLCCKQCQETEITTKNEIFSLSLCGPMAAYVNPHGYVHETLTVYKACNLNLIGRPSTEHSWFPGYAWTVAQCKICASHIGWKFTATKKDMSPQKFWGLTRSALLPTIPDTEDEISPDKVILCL
T2 sequence (P10275 whole entry L702H/T878A): as the sequence (P10275 whole entry T878A) above, with L702H counted along it
T2 sequence (Q96SW2 whole entry partner): as the sequence (Q96SW2 whole entry partner) above

In the case of `COc1nc(N2CCN(CC3CCN(c4ccc(N5CCCC(c6ccc(Cl)c7c(C#N)c[nH]c67)C5)cc4)CC3)CC2)cc2c1C(=O)N(C1CCC(=O)NC1=O)C2` (single isomer, unassigned) [Example 92, 4-Chloro-7-[(3S*)-1-{4-[4-({4-[2-(2,6-dioxopiperidin-3-yl)-4-methoxy-3-oxo-2,3-dihydro-1H-pyrrolo[3,4-c]pyridin-6-yl]piperazin-1-yl}methyl)piperidin-1-yl]phenyl}piperidin-3-yl]-1H-indole-3-carbonitrile], in test [1], the “LNCaP AR Degradation Dmax” value was 100%. For the same molecule, the “LNCaP AR (L702H) Degradation Dmax” value in test [2] worked out at 100%.

On to `N#Cc1c[nH]c2c(C3CCCN(c4ccc(N5CCC(CN6CCN(c7ccc8c(c7)CN(C7CCC(=O)NC7=O)C8=O)CC6)CC5)cc4)C3)ccc(Cl)c12` (single isomer, unassigned) [Example 93, 4-Chloro-7-[(3R*)-1-{4-[4-({4-[2-(2,6-dioxopiperidin-3-yl)-1-oxo-2,3-dihydro-1H-isoindol-5-yl]piperazin-1-yl}methyl)piperidin-1-yl]phenyl}piperidin-3-yl]-1H-indole-3-carbonitrile], for which, in test [1], it took 20 nM to reach half-maximal degradation (DC50) and the Dmax is 87%. For the same molecule, in test [2], half-maximal degradation (DC50) was put at 11 nM and the Dmax was 95%.

`N#Cc1c[nH]c2c(C3CCCN(c4ccc(C5CCN(CC6CCN(c7ccc8c(c7)CN(C7CCC(=O)NC7=O)C8=O)CC6)CC5)cc4)C3)ccc(Cl)c12` (single isomer, unassigned) [Example 96, 4-Chloro-7-[(3R*)-1-{4-[1-({1-[2-(2,6-dioxopiperidin-3-yl)-1-oxo-2,3-dihydro-1H-isoindol-5-yl]piperidin-4-yl}methyl)piperidin-4-yl]phenyl}piperidin-3-yl]-1H-indole-3-carbonitrile]: in test [1], it took 31 nM to reach half-maximal degradation (DC50) and the Dmax was found to be 54%. In addition, in test [2], the DC50 was determined as 12 nM and the Dmax was determined as 95%.

For the molecule `N#Cc1c[nH]c2c(C3CCCN(c4ccc(C5CCN(CC6CCN(c7ccc8c(c7)CN(C7CCC(=O)NC7=O)C8=O)CC6)CC5)cc4)C3)ccc(Cl)c12` (single isomer, unassigned) [Example 97, 4-Chloro-7-[(3S*)-1-{4-[1-({1-[2-(2,6-dioxopiperidin-3-yl)-1-oxo-2,3-dihydro-1H-isoindol-5-yl]piperidin-4-yl}methyl)piperidin-4-yl]phenyl}piperidin-3-yl]-1H-indole-3-carbonitrile], the DC50 in test [1] and in test [2] was more than 3000 nM in each case.

Consider `COc1nc(N2CCC(CN3CCC(c4ccc(N5CCCC(c6ccc(Cl)c7c(C#N)c[nH]c67)C5)cc4)CC3)CC2)cc2c1C(=O)N(C1CCC(=O)NC1=O)C2` (single isomer, unassigned) [Example 98, 4-Chloro-7-[(3R*)-1-{4-[1-({1-[2-(2,6-dioxopiperidin-3-yl)-4-methoxy-3-oxo-2,3-dihydro-1H-pyrrolo[3,4-c]pyridin-6-yl]piperidin-4-yl}methyl)piperidin-4-yl]phenyl}piperidin-3-yl]-1H-indole-3-carbonitrile], for which, in test [1], the DC50 was found to be 90 nM and the Dmax was determined as 40%. In test [2], it took 15 nM to reach half-maximal degradation (DC50) and the Dmax was determined as 83%.

Turning to `N#Cc1c[nH]c2c(N3CCCC(c4ccc(N5CCC(CN6CCC(n7ccc8c(N9CCC(=O)NC9=O)cccc87)CC6)CC5)nc4)C3)ccc(Cl)c12` (single isomer, unassigned) [Example 115, 4-Chloro-7-[(3S*)-3-{6-[4-({4-[4-(2,4-dioxo-1,3-diazinan-1-yl)-1H-indol-1-yl]piperidin-1-yl}methyl)piperidin-1-yl]pyridin-3-yl}piperidin-1-yl]-1H-indole-3-carbonitrile], the DC50 stood at 14 nM in test [1] and 13 nM in test [2]. Moreover, the Dmax in test [1] came to 99%; in test [2] it was 102%.

On to `N#Cc1c[nH]c2c(N3CCCC(c4ccc(N5CCC(CN6CCC(n7ccc8c(N9CCC(=O)NC9=O)cccc87)CC6)CC5)nc4)C3)ccc(Cl)c12` (single isomer, unassigned) [Example 116, 4-Chloro-7-[(3R*)-3-{6-[4-({4-[4-(2,4-dioxo-1,3-diazinan-1-yl)-1H-indol-1-yl]piperidin-1-yl}methyl)piperidin-1-yl]pyridin-3-yl}piperidin-1-yl]-1H-indole-3-carbonitrile], for which, in test [1], the DC50 stood at 11 nM and the “LNCaP AR Degradation Dmax” value is on record as 103%. Besides, in test [2], the 50% degradation concentration (DC50) is 23 nM and the “LNCaP AR (L702H) Degradation Dmax” value is 97%.

Turning to `N#Cc1c[nH]c2c(N3CCOC(c4ccc(N5CCC(CN6CCC(n7ccc8c(N9CCC(=O)NC9=O)cccc87)CC6)CC5)cc4)C3)ccc(Cl)c12` (single isomer, unassigned) [Example 117, 4-Chloro-7-[(2S*)-2-{4-[4-({4-[4-(2,4-dioxo-1,3-diazinan-1-yl)-1H-indol-1-yl]piperidin-1-yl}methyl)piperidin-1-yl]phenyl}morpholin-4-yl]-1H-indole-3-carbonitrile], in test [1], it took 17 nM to reach half-maximal degradation (DC50) and the Dmax worked out at 89%. Further, in test [2], the half-maximal degradation concentration (DC50) stood at 363 nM and the Dmax came to 84%.

For the molecule `N#Cc1c[nH]c2c(N3CCOC(c4ccc(N5CCC(CN6CCC(n7ccc8c(N9CCC(=O)NC9=O)cccc87)CC6)CC5)cc4)C3)ccc(Cl)c12` (single isomer, unassigned) [Example 118, 4-Chloro-7-[(2R*)-2-{4-[4-({4-[4-(2,4-dioxo-1,3-diazinan-1-yl)-1H-indol-1-yl]piperidin-1-yl}methyl)piperidin-1-yl]phenyl}morpholin-4-yl]-1H-indole-3-carbonitrile], in test [1], the DC50 is 24 nM and the “LNCaP AR Degradation Dmax” value stood at 92%. Besides, in test [2], it took 2300 nM to reach half-maximal degradation (DC50) and the “LNCaP AR (L702H) Degradation Dmax” value is given as 100%.

Turning to `N#Cc1n[nH]c2c(N3CCOC(c4ccc(N5CCC(CN6CCC(n7ccc8c(N9CCC(=O)NC9=O)cccc87)CC6)CC5)cc4)C3)ccc(Cl)c12` (single isomer, unassigned) [Example 119, 4-Chloro-7-[(2S*)-2-{4-[4-({4-[4-(2,4-dioxo-1,3-diazinan-1-yl)-1H-indol-1-yl]piperidin-1-yl}methyl)piperidin-1-yl]phenyl}morpholin-4-yl]-1H-indazole-3-carbonitrile], in test [1], half-maximal degradation (DC50) was put at 6 nM and the Dmax stood at 99%. Besides, in test [2], it took 14 nM to reach half-maximal degradation (DC50) and the Dmax is 103%.

Source of the values: patent US20260274832A1, “COMPOUNDS AND THEIR USE IN TREATING CANCER” (ASTRAZENECA AB, priority 2023, published 2026).
